Laboratory results taken from ChEMBL document CHEMBL1138399, “Novel poly(ADP-ribose) polymerase-1 inhibitors” (Bioorg Med Chem Lett, 2007).

Key:
[1] = test system: PC-12; experiment: Recovery of NAD+ in hydrogen peroxide treated PC12 cells at 1 uM relative to control; format: functional, Rattus norvegicus
[2] = test system: PC-12; experiment: Maximum recovery of NAD+ in hydrogen peroxide treated PC12 cells at 30 uM relative to control; format: functional, Rattus norvegicus
[3] = target: Poly [ADP-ribose] polymerase 1 (Homo sapiens, UniProt P09874); experiment: Inhibition of human recombinant PARP1 in U251MG cells by CometAssay; format: cell-based, U-251
[4] = test system: PC-12; experiment: Maximum recovery of NAD+ in hydrogen peroxide treated PC12 cells at 10 uM relative to control; format: functional, Rattus norvegicus
[5] = test system: PC-12; experiment: Maximum recovery of NAD+ in hydrogen peroxide treated PC12 cells at 3 uM relative to control; format: functional, Rattus norvegicus

Sequence of Poly [ADP-ribose] polymerase 1 (P09874 whole entry): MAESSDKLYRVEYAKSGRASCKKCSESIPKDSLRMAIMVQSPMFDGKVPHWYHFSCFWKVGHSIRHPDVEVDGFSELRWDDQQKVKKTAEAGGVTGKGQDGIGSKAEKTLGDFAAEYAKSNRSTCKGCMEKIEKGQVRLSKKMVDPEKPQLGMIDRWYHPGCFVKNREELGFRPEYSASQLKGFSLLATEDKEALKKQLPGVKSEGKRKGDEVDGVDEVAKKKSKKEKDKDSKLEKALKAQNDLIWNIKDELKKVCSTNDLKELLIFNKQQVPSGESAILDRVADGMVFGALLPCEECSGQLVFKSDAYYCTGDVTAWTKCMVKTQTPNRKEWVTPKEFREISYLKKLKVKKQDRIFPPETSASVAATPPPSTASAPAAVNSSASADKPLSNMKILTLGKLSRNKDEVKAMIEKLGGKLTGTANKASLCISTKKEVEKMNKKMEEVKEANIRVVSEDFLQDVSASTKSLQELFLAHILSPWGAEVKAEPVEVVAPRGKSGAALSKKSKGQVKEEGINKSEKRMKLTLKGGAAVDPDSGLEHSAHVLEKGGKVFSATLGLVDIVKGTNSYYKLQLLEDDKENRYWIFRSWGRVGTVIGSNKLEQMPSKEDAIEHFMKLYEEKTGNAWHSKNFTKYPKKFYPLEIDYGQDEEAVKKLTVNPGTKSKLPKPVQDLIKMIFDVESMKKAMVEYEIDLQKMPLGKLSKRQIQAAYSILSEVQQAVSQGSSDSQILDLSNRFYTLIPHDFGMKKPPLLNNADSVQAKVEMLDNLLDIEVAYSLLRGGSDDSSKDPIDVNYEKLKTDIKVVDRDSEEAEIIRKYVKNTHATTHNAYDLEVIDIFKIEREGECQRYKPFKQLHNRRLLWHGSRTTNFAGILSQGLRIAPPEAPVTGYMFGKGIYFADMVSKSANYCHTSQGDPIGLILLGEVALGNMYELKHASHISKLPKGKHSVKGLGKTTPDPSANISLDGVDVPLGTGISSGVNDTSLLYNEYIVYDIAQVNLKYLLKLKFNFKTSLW

Compound | Activity [1] [%] | Activity [2] [%] | IC50 [3] [nM] | Activity [4] [%] | Activity [5] [%]
CC(C)(C)OC(=O)Cc1nc(-c2ccc3[nH]c4c5c(c6c(c4c3c2)C(=O)NC6=O)CCC5)cs1 | 20 | 49 | – | – | –
O=C1NC(=O)c2c1c1c(c3[nH]c4ccc(-c5csc(CNC6O[C@H](CO)[C@@H](O)[C@H](O)[C@H]6O)n5)cc4c23)CCC1 (some centres not stated) | 0 | 0 | 17 | – | –
CS(=O)(=O)NCc1nc(-c2ccc3[nH]c4c5c(c6c(c4c3c2)C(=O)NC6=O)CCC5)cs1 | 22 | 28 | 18 | – | –
O=C(NCc1nc(-c2ccc3[nH]c4c5c(c6c(c4c3c2)C(=O)NC6=O)CCC5)cs1)OCc1ccccc1 | 17 | 46 | – | – | –
Br.NCc1nc(-c2ccc3[nH]c4c5c(c6c(c4c3c2)C(=O)NC6=O)CCC5)cs1 | 20 | – | – | 41 | –
CCCCC(=O)NCc1nc(-c2ccc3[nH]c4c5c(c6c(c4c3c2)C(=O)NC6=O)CCC5)cs1 | 15 | 34 | – | – | –
CC(C)(C)S(=O)(=O)Cc1nc(-c2ccc3[nH]c4c5c(c6c(c4c3c2)C(=O)NC6=O)CCC5)cs1 | 33 | 51 | – | – | –
CC(C)(C)C(=O)OCc1nc(-c2ccc3[nH]c4c5c(c6c(c4c3c2)C(=O)NC6=O)CCC5)cs1 | 14 | 27 | – | – | –
CC(C)(C)OC(=O)NC(CCCc1nc(-c2ccc3[nH]c4c5c(c6c(c4c3c2)C(=O)NC6=O)CCC5)cs1)C(=O)OC(C)(C)C (configuration not stated) | 17 | – | 46 | 27 | –
CCC(=O)NCc1nc(-c2ccc3[nH]c4c5c(c6c(c4c3c2)C(=O)NC6=O)CCC5)cs1 | 16 | 20 | – | – | –
Cc1nc(-c2ccc3[nH]c4c5c(c6c(c4c3c2)C(=O)NC6=O)CCC5)c(Br)s1 | 16 | 57 | – | – | –
O=C1NC(=O)c2c1c1c(c3[nH]c4ccc(-c5csc(CNC(=O)C6CC6)n5)cc4c23)CCC1 | 11 | 16 | – | – | –
CC(=O)c1ccc2[nH]c3c4c(c5c(c3c2c1)C(=O)NC5=O)CCC4 | 35 | 57 | – | – | –
CC(=O)Nc1nc(-c2ccc3[nH]c4c5c(c6c(c4c3c2)C(=O)NC6=O)CCC5)cs1 | 10 | 34 | – | – | –
O=C1NC(=O)c2c1c1c(c3[nH]c4ccccc4c23)CCC1 | 30 | – | – | – | –
NCc1ccc2[nH]c3c4c(c5c(c3c2c1)C(=O)NC5=O)CCC4 | 84 | 100 | 18 | – | –

Compound | Activity [1] [%] | Activity [2] [%] | IC50 [3] [nM] | Activity [4] [%] | Activity [5] [%]
CC(=O)NCc1nc(-c2ccc3[nH]c4c5c(c6c(c4c3c2)C(=O)NC6=O)CCC5)cs1 | 20 | 51 | – | – | –
CC(C)C(=O)NCc1nc(-c2ccc3[nH]c4c5c(c6c(c4c3c2)C(=O)NC6=O)CCC5)cs1 | 10 | 33 | – | – | –
O=C(CBr)c1ccc2[nH]c3c4c(c5c(c3c2c1)C(=O)NC5=O)CCC4 | 32 | 49 | – | – | –
Cc1sc(N)nc1-c1ccc2[nH]c3c4c(c5c(c3c2c1)C(=O)NC5=O)CCC4 | 37 | – | – | – | 38
Cc1nc(-c2ccc3[nH]c4c5c(c6c(c4c3c2)C(=O)NC6=O)CCC5)cs1 | 19 | 63 | – | – | –
O=C1NC(=O)c2c1c1c(c3[nH]c4ccc(-c5csc(CNC(=O)C6CCCC6)n5)cc4c23)CCC1 | 21 | 29 | – | – | –
N=C(N)Nc1nc(-c2ccc3[nH]c4c5c(c6c(c4c3c2)C(=O)NC6=O)CCC5)cs1 | 19 | 53 | – | – | –
CNc1nc(-c2ccc3[nH]c4c5c(c6c(c4c3c2)C(=O)NC6=O)CCC5)cs1 | 22 | 56 | – | – | –
O=C1NC(=O)c2c1c1c(c3[nH]c4ccc(-c5csc(-c6ccno6)n5)cc4c23)CCC1 | 11 | 27 | 66 | – | –
CCCC(=O)NCc1nc(-c2ccc3[nH]c4c5c(c6c(c4c3c2)C(=O)NC6=O)CCC5)cs1 | 19 | 29 | – | – | –
NC(CCCc1nc(-c2ccc3[nH]c4c5c(c6c(c4c3c2)C(=O)NC6=O)CCC5)cs1)C(=O)O.O=C(O)C(F)(F)F (configuration not stated) | 7 | 47 | 22 | – | –
CCNC(=O)NCc1nc(-c2ccc3[nH]c4c5c(c6c(c4c3c2)C(=O)NC6=O)CCC5)cs1 | 15 | – | – | 22 | –
CS(=O)(=O)Cc1nc(-c2ccc3[nH]c4c5c(c6c(c4c3c2)C(=O)NC6=O)CCC5)cs1 | 16 | 62 | – | – | –
CC(C)CC(=O)NCc1nc(-c2ccc3[nH]c4c5c(c6c(c4c3c2)C(=O)NC6=O)CCC5)cs1 | 13 | 30 | – | – | –
Nc1nc(-c2ccc3[nH]c4c5c(c6c(c4c3c2)C(=O)NC6=O)CCC5)cs1 | 48 | 100 | – | – | –
